Test results reported in patent US9309236B2, “PI-kinase inhibitors with broad spectrum anti-infective activity” (The Board of Trustees of the Leland Stanford Junior …, priority 2011, dated 2016).

Tests used:
PI3K C2b = PI3K C2b (Homo sapiens, UniProt O00750); test: PI3-kinase C2β (type II PI3-kinase beta) kinase assay; type: biochemical
Method: Compounds are tested in C.1.1. PI kinase assays as described by Shokat et al., “A membrane capture assay for lipid kinase activity.” Nat. Protoc. 2007; 2(10):2459-66.

[1] = Cytotoxicity CC50 in HeLa cells; type: cell-based; conditions: human
Plasmodium falciparum = Plasmodium falciparum assay, erythrocyte-fed culture of ring forms; type: cell-based; conditions: read-out: EC50 P. falcip.
Method: Plasmodium falciparum assays are performed using an erythrocyte-fed culture of P. falciparum ring forms, using similar methods to those described by Deu et al. “Functional Studies of Plasmodium falciparum Dipeptidyl Aminopeptidase I Using Small Molecule Inhibitors and Active Site Probes.” Chemistry & Biology 17, 808-819.

[2] = biological target: HA-tagged bovine PI4KIIIβ (Bos taurus, UniProt O02810); test: PI4KIIIβ immunoprecipitate kinase assay with [γ-32P]-ATP; type: biochemical; conditions: in vitro enzyme assays; read-out: IC50 PI4KIIIβ
Method: (§1) In the assays described here, p110α-p85 complex and p110γ were acquired from Millipore. Assays were performed with La-phosphatidylinositol (Avanti) as described in Knight et al. Nat. […] Inhibitor series were prepared 10% DMSO as 5× stocks for the assay. […] COS-7 cells were cultured in 10 cm dishes and transfected at 70% confluence with 10 μg of plasmid DNA (HA-tagged bovine PI4KIIIβ, HA-tagged human PI4KIIIα) using Lipofectamine 2000 and 5 ml Opti-MEM following the manufacturer's instructions. After 5 hours the transfection medium was replaced with 10 ml complete DMEM. 36 hrs post transfection, cells were washed once with 5 ml PBS (pH 7.4) and lysed in 1 ml of lysis buffer (1) on ice. Lysates were collected by scraping and after 15 min they were centrifuged at 13,000 rpm for 10 min. To the lysates was added 200 μl of protein G Sepharose 4 fast flow beads that were prewashed with PBS and lysis buffer and 2 μg of anti-HA antibody. The tubes were then incubated overnight at 4 degrees C. in a tube rotator. […] Kinase reactions were run in a mixture of 45 μL of PI buffer (1 mM PI in kinase buffer), 10 μL of immunoprecipitated beads, 2 μL of inhibitors (dissolved and diluted in DMSO) or DMSO and 5 μL of [γ-^32P]-ATP (1 mM and 2 μCi/tube). The immunoprecipitates in PI buffer were pre-incubated with the drugs for 20 min prior the initiation of kinase reaction by adding ATP and the reactions were carried out for 30 min in 15 ml polypropolyne tubes. Reactions were terminated by addition of 3 ml of CHCl3:CH3OH:HCl (200:100:0.75) followed by 0.6 ml of 0.6N HCl to induce phase separation. The mixtures were vortexed, centrifuged at 2000 rpm for 2 min and the upper phase was discarded. To the lower phase was added 1.5 ml of CHCl3:CH3OH:0.6N HCl (3:48:47) and the mixture vortexed and centrifuged at 2000 rpm for 2 min. The lower phase was then transferred to counting vials and evaporated. Samples were counted in a scintillation beta counter after adding 5 ml of Instafluor (Perkin-Elmer).

HA-tagged human PI4KIIIα = HA-tagged human PI4KIIIα (Homo sapiens, UniProt P42356); test: PI4KIIIα immunoprecipitate kinase assay with [γ-32P]-ATP; type: biochemical; conditions: in vitro enzyme assays; read-out: IC50 PI4KIIIα
Method: as §1, with “Lysates were collected by scraping and after 15 min they were centrifuged at 13,000 rpm for 10 min.” left out

PI3K C2b, sequence (O00750 whole entry): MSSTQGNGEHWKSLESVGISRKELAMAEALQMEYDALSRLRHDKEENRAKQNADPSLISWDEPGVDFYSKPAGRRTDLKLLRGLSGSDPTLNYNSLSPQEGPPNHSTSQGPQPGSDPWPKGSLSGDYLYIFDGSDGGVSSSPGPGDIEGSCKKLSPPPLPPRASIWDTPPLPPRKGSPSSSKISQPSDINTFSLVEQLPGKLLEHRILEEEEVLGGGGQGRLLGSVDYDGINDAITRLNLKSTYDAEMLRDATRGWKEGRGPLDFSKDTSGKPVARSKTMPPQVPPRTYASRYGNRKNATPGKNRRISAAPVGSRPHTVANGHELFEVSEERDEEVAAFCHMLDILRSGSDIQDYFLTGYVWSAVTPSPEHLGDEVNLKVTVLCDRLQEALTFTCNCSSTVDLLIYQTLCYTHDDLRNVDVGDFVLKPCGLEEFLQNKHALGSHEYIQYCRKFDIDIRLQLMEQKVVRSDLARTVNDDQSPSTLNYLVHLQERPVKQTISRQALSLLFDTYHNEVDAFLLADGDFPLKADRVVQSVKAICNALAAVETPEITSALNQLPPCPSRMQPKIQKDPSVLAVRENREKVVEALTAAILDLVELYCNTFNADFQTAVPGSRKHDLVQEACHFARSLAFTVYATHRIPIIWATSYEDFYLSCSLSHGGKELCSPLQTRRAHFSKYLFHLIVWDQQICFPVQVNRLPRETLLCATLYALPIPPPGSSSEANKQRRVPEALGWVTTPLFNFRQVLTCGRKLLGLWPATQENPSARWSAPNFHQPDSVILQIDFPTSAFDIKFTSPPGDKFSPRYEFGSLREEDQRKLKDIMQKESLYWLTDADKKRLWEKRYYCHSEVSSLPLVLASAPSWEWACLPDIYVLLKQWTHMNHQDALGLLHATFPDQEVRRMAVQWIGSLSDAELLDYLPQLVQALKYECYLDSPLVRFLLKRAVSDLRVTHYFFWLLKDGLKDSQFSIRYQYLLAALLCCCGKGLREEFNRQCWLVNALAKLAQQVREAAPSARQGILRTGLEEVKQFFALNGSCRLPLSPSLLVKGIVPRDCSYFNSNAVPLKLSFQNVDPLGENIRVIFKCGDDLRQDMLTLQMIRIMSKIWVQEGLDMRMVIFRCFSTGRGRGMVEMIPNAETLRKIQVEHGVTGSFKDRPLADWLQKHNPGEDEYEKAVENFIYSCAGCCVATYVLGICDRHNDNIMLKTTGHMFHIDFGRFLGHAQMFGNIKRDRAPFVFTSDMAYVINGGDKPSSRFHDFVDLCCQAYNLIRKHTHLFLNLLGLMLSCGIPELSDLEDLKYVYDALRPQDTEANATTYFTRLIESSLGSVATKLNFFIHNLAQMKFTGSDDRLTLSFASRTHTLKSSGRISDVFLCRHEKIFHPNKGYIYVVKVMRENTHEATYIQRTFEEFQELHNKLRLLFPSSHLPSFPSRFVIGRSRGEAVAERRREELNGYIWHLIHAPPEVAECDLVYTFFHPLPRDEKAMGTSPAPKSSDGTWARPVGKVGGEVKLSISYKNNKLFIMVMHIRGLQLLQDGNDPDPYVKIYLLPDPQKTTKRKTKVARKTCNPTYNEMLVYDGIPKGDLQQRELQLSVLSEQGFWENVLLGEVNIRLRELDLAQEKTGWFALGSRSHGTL
HA-tagged bovine PI4KIIIβ, sequence (O02810 whole entry): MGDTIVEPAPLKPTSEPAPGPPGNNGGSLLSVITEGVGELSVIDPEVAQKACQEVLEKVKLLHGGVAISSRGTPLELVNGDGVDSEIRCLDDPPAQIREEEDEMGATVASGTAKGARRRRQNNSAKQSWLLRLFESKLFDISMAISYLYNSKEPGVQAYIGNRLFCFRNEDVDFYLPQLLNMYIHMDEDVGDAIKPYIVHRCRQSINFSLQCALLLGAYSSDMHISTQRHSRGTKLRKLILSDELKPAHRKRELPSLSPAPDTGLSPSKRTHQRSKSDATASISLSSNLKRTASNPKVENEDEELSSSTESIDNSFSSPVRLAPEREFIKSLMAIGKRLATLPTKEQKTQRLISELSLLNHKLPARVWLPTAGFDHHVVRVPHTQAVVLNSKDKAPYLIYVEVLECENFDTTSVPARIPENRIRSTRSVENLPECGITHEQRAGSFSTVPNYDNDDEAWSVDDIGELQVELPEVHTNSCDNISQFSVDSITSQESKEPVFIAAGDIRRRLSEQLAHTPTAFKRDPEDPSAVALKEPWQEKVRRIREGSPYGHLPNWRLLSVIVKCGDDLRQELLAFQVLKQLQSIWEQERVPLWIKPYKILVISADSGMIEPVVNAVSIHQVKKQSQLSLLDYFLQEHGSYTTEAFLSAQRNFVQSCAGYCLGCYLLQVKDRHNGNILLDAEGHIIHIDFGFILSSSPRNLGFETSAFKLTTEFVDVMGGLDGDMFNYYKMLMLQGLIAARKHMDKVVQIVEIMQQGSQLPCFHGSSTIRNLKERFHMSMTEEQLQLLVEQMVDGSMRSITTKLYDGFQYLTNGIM
HA-tagged human PI4KIIIα, sequence (P42356 whole entry): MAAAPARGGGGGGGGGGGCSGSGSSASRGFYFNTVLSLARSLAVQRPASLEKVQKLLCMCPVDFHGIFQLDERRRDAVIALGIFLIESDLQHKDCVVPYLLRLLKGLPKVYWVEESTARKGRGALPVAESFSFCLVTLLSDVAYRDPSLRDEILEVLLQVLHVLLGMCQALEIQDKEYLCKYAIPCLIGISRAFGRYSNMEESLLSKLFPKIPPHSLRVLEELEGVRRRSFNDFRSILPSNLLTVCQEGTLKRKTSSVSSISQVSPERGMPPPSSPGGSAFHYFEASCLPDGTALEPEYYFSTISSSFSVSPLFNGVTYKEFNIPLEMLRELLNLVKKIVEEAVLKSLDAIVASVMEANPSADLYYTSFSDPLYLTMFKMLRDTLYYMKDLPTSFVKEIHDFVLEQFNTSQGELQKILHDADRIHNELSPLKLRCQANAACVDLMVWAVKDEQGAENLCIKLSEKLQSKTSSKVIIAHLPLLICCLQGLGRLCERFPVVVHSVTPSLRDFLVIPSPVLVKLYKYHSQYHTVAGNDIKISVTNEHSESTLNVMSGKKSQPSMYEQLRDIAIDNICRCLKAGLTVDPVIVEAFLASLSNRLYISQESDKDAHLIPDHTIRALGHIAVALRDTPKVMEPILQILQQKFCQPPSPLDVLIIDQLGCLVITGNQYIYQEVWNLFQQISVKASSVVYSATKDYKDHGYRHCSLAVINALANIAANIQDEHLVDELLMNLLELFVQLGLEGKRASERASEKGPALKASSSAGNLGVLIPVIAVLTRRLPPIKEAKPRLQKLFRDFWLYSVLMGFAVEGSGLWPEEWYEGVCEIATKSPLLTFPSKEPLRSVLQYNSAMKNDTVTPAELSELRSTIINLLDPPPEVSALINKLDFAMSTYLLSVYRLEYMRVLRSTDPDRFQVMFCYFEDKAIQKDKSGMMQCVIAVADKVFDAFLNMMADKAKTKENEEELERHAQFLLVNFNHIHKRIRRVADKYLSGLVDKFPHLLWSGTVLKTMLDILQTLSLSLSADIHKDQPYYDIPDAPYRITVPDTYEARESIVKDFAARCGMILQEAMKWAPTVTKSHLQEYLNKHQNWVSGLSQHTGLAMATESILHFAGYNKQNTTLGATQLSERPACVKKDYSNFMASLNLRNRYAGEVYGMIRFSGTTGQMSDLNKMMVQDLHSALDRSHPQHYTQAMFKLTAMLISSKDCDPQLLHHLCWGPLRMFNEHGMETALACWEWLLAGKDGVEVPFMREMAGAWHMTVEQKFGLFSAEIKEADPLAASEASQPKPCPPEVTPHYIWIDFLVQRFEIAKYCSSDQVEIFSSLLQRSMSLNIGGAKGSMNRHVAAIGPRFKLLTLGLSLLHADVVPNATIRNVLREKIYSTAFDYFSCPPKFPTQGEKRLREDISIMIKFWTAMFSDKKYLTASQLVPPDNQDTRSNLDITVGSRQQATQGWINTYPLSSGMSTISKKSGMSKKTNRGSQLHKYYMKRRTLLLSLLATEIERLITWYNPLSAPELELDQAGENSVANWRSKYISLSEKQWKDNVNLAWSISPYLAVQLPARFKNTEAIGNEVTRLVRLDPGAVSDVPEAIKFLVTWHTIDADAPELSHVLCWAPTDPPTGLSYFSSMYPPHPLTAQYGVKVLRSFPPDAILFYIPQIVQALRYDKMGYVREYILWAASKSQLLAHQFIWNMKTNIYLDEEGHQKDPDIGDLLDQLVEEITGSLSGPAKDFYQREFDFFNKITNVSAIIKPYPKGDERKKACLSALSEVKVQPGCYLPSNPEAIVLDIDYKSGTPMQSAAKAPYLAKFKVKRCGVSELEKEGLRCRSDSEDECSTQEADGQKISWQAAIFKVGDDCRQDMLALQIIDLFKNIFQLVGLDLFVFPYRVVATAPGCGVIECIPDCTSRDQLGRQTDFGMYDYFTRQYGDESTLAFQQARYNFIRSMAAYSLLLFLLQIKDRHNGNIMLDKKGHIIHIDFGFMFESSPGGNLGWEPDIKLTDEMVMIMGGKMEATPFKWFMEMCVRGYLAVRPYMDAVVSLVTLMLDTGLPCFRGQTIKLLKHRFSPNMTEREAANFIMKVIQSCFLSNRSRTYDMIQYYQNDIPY

Structure (SMILES): COc1ccc(-c2sc(NC(=O)C3CCCC3)nc2C)cc1S(=O)(=O)Nc1ccc(O)cc1 [PT423]
- IC50 (PI3K C2b): 28 nM
- CC50 [1]: 12600 nM
- EC50 (Plasmodium falciparum): 3.2 nM
- IC50 [2]: 7 nM
- IC50 (HA-tagged human PI4KIIIα): 1750 nM
